“Also recorded” adds a separate entry of the source.
How the values were obtained:
breast cancer [1] = details: unselected patients with breast cancer; cited from earlier work
breast cancer [2] = assay: Response of PET-imaged patients to tamoxifen treatment; type: in vivo, human
[3] = tested on: MCF-7 human breast cancer cells; assay: MCF-7 human breast cancer xenograft growth in nude mice; type: in vivo, mouse; details: 50 μg daily s.c.
Source text: The cultures were free of mycoplasma and pathogenic murine viruses (assayed by Microbiological Associates, Bethesda, Md.). Female athymic NCr-nu/nu mice were obtained from the NCI-Frederick Cancer Research Facility (Frederick, Md.). The mice were maintained in specific-pathogen-free conditions in a facility approved by the American Association for Accreditation of Laboratory Animal Care. […] A 60-day release pellet containing […] 17-β estradiol (Innovative Research of America, Toledo, Ohio) was implanted s.c. in each animal. After 20 days the 17β estradiol […] removed from one group, and these mice were not treated further.

[4] = Acute/immediate toxicity following i.v. injection in BALB/c mice; details: mouse, in vivo, iv
Procedure: Acute toxicity studies were performed in BALB/c female mice with doses tested at 20, 50 and 200 mg/kg (i.v., n=5 mice per dose).

SMILES	Positive therapy results (breast cancer [1]) [%]	Response of TX treat. (breast cancer [2]; patient 1)	Response of TX treat. (breast cancer [2]; patient 2)	Response of TX treat. (breast cancer [2]; patient 3)	Response of TX treat. (breast cancer [2]; patient 4)	Response of TX treat. (breast cancer [2]; patient 5)	Response of TX treat. (breast cancer [2]; patient 7)	Response of TX treat. (breast cancer [2]; patient 9)	Response of TX treat. (breast cancer [2]; patient 10)	Response to tamoxifen therapy (in words) (breast cancer [2]; three patients with tumor uptake)	ER(+) MCF-7 tumor growth (in words) [3]	MTD [4] [mg/kg]
CC/C(=C(\c1ccccc1)c1ccc(OCCN(C)C)cc1)c1ccccc1 [Compound I, Tamoxifen]	30	poor	poor	good	poor	good	poor	poor	good	positive response to tamoxifen therapy	reduced ER(+) breast tumor growth; also recorded: growth of the MCF-7 tumors was greatly reduced	
CCN(CC)CCOc1ccc(C(=C(CCCI)c2ccccc2)c2ccccc2)cc1 [iodotamoxifen]											reduced ER(+) breast tumor growth; also recorded: growth of the MCF-7 tumors was greatly reduced	50

From patent US6096874A (Board of Regents, the University of Texas System, priority 1995, dated 2000)
